Assay results as given in patent US8129361B2, “Amine compound and pharmaceutical use thereof” (Mitsubishi Tanabe Pharma Corporation, priority 2007, dated 2012).

What was measured:
Assay type in all cases: in vivo
[1] = tested on: peripheral blood lymphocyte number; experiment: Peripheral blood lymphocyte number decreasing action in rat; conditions: male F344 rats, oral, 24 hr after administration, read-out: ED50 (dose necessary for reducing the lymphocyte count of the vehicle group (100%) by 50%)
[2] = tested on: peripheral blood lymphocyte number; experiment: Peripheral blood lymphocyte number decreasing action in mouse; conditions: ip, male BALB/cAnNCrj mice, intraperitoneal, 24 hr after administration, read-out: ED50 (dose necessary for reducing the lymphocyte count of the vehicle group (100%) by 50%)
[3] = tested on: heart rate in rat under anesthesia; experiment: Action on heart rate in rat under anesthesia (intravenous administration); conditions: anesthetized male Sprague-Dawley (IGS) rats, intravenous over 30 sec, up to the dose of 0.03 mg/kg body weight, 1-15 minutes after administration
Method: Action on Heart Rate in Rat Under Anesthesia
Male Sprague-Dawley (IGS) rats were anesthetized by intraperitoneal administration of Nembutal (manufactured by Dainippon Sumitomo Pharma Co., Ltd.), and fixed at the dorsal position. Electrodes were mounted on four limbs, and the electrocardiogram was measured according to Standard Limb Lead II using an electrocardiogram amplifier (AC-601G, manufactured by NIHON KOHDEN CORPORATION). With the electrocardiographic wave as a trigger, the heart rate was measured with an instantaneous heart rate unit (AT-601G, manufactured by NIHON KOHDEN CORPORATION). The test compound was dissolved in 20% cyclodextrin (manufactured by Nihon Shokuhin Kako Co., Ltd.) and intravenously administered at a dose of 0.001-10 mg/kg body weight over 30 sec. The heart rate was measured before administration, and 1, 2, 3, 4, 5, 10 and 15 minutes after the administration.

heart rate in rat = experiment: Action on heart rate in rat (telemetry, oral administration); conditions: male Crl:CD(SD) rats, measured to 24 hr after administration
Method: Action on Heart Rate in Rat
Male Crl:CD(SD) rats were anesthetized by intraperitoneal administration of Nembutal (manufactured by Dainippon Sumitomo Pharma Co., Ltd.), and a pressure sensor connected to a telemetry transmitter (TL11M2-C50-PTX, manufactured by Data Sciences International) was inserted into the abdominal aorta and a transmitter was subcutaneously placed in the abdomen. The blood pressure and heart rate data were recorded by an analysis software (Dataquest A.R.T., manufactured by Data Sciences International) via a receiver (RPC-1, manufactured by Data Sciences International). After confirmation of recovery of circadian rhythm of the heart rate, the rats were subjected to the experiment. The compound of the present invention was suspended in 0.5% hydroxypropylmethylcellulose (manufactured by Shin-Etsu Chemical Co., Ltd.) and orally administered. The heart rate was measured from 72 hr before the administration to 24 hr after the administration.

[4] = up to the dose of 30 mg/kg body weight

Row | Structure (SMILES) | ED50 [1] [mg/kg] | ED50 [2] [mg/kg] | Effect on heart rate as compared to the value before administration [3] | other results
1 | CC[C@](N)(CO)CCc1ccc(OCCCc2ccc(C(F)(F)F)cc2)c(C(F)(F)F)c1.Cl [Compound 32-1, (R)-2-amino-2-ethyl-4-{3-trifluoromethyl-4-[3-(4-trifluoromethylphenyl)propoxy]phenyl}butanol hydrochloride] | 0.02 | – | – | –
2 | Cl.NC(CO)(CO)CCc1ccc(OC/C=C/c2cccc(Cl)c2)c(C(F)(F)F)c1 [Compound 89-2, 2-amino-2-(2-{4-[3-(3-chlorophenyl)allyloxy]-3-trifluoromethylphenyl}ethyl)propane-1,3-diol hydrochloride] | 0.06 | 0.04 | – | –
3 | NC(/C=C/c1ccc(OCCCc2ccccc2)c(C(F)(F)F)c1)(CO)COP(=O)(O)O (stereo not drawn) [compound 192-2, (E)-2-amino-4-[4-(3-phenylpropoxy)-3-trifluoromethylphenyl]-2-(phosphoryloxymethyl)-3-butenol] | – | – | did not reduce the heart rate of the rat by 20% or more | –
4 | C[C@](N)(CO)CCc1ccc(OCCCc2ccc(Cl)c(Cl)c2)c(C(F)(F)F)c1.Cl [Compound 204-1, (R)-2-amino-4-{4-[3-(3,4-dichlorophenyl)propoxy]-3-trifluoromethylphenyl}-2-methylbutanol hydrochloride] | 0.03 | 0.005 | – | Effect on heart rate (heart rate in rat; up to the dose of 10 mg/kg body weight): did not reduce the heart rate
5 | Cl.NC(CO)(CO)CCc1ccc(OCCCc2ccc(Cl)c(Cl)c2)c(C(F)(F)F)c1 [Compound 38-5, 2-amino-2-(2-{4-[3-(3,4-dichlorophenyl)propoxy]-3-trifluoromethylphenyl}ethyl)propane-1,3-diol hydrochloride] | 0.07 | 0.07 | – | Effect on heart rate (heart rate in rat; [4]): did not reduce the heart rate
6 | CC[C@](N)(CO)CCc1ccc(OCCCc2ccc(OC(F)(F)F)cc2)c(C(F)(F)F)c1.Cl [Compound 218-2, (R)-2-amino-2-ethyl-4-{4-[3-(4-trifluoromethoxyphenyl)propoxy]-3-trifluoromethylphenyl}butanol hydrochloride] | 0.03 | – | – | –
7 | NC(CO)(CCc1ccc(OCCCc2ccc(C(F)(F)F)c(F)c2)c(C(F)(F)F)c1)COP(=O)(O)O (stereo not drawn) [Compound 168-2, 2-amino-4-{4-[3-(3-fluoro-4-trifluoromethylphenyl)propoxy]-3-trifluoromethylphenyl}-2-(phosphoryloxymethyl)butanol] | – | – | did not reduce the heart rate of the rat by 20% or more | –
8 | Cl.NC(CO)(CO)CCc1ccc(OCCCc2ccc(OC(F)(F)F)cc2)c(C(F)(F)F)c1 [Compound 52-5, 2-amino-2-(2-{4-[3-(4-trifluoromethoxyphenyl)propoxy]-3-trifluoromethylphenyl}ethyl)propane-1,3-diol hydrochloride] | 0.05 | 0.08 | – | Effect on heart rate (heart rate in rat; [4]): did not reduce the heart rate
9 | C[C@@](N)(CCc1ccc(OCCCc2ccc(C(F)(F)F)cc2)c(C(F)(F)F)c1)COP(=O)(O)O [Compound 132-2, (R)-phosphoric acid mono(2-amino-2-methyl-4-{3-trifluoromethyl-4-[3-(4-trifluoromethylphenyl)propoxy]phenyl}butyl)ester] | – | – | did not reduce the heart rate of the rat by 20% or more | –
10 | Cl.NC(CO)(CO)CCc1ccc(OCCCc2ccc(C(F)(F)F)c(F)c2)c(C(F)(F)F)c1 [Compound 68-4, 2-amino-2-(2-{4-[3-(3-fluoro-4-trifluoromethylphenyl)propoxy]-3-trifluoromethylphenyl}ethyl)propane-1,3-diol hydrochloride] | 0.09 | 0.04 | – | –
11 | CCC(N)(CCc1ccc(OCCCc2ccc(OC(F)(F)F)cc2)c(C(F)(F)F)c1)COP(=O)(O)O (stereo not drawn) [Compound 221-2, phosphoric acid mono(2-amino-2-ethyl-4-{4-[3-(4-trifluoromethoxyphenyl)propoxy]-3-trifluoromethylphenyl}butyl)ester] | – | – | did not reduce the heart rate of the rat by 20% or more | –
12 | CC(N)(CCc1ccc(OCCCc2ccc(Cl)c(Cl)c2)c(C(F)(F)F)c1)COP(=O)(O)O (stereo not drawn) [Compound 209-2, phosphoric acid mono(2-amino-4-{4-[3-(3,4-dichlorophenyl)propoxy]-3-trifluoromethylphenyl}-2-methylbutyl)ester] | – | – | did not reduce the heart rate of the rat by 20% or more | –
13 | CC[C@](N)(CO)CCc1ccc(OCCCc2cccc(OC(F)(F)F)c2)c(C(F)(F)F)c1.Cl [Compound 220-2, (R)-2-amino-2-ethyl-4-{4-[3-(3-trifluoromethoxyphenyl)propoxy]-3-trifluoromethylphenyl}butanol hydrochloride] | 0.03 | – | – | –
14 | C[C@](N)(CO)CCc1ccc(OCCCc2ccc(C(F)(F)F)cc2)c(C(F)(F)F)c1.Cl [Compound 29-1, (R)-2-amino-2-methyl-4-{3-trifluoromethyl-4-[3-(4-trifluoromethylphenyl)propoxy]phenyl}butanol hydrochloride] | 0.03 | – | – | –
15 | Cl.NC(/C=C/c1ccc(OCCCc2ccccc2F)c(C(F)(F)F)c1)(CO)CO [Compound 101-2, (E)-2-amino-2-(2-{4-[3-(2-fluorophenyl)propoxy]-3-trifluoromethylphenyl}vinyl)propane-1,3-diol hydrochloride] | – | 0.1 | – | –
16 | Cl.NC(/C=C/c1ccc(OCCCc2ccccc2)c(C(F)(F)F)c1)(CO)CO [Compound 100-2, (E)-2-amino-2-{2-[4-(3-phenylpropoxy)-3-trifluoromethylphenyl]vinyl}propane-1,3-diol hydrochloride] | 0.07 | 0.07 | – | –
17 | NC(/C=C/c1ccc(OCCCc2ccccc2F)c(C(F)(F)F)c1)(CO)COP(=O)(O)O (stereo not drawn) [compound 193-2, (E)-2-amino-4-{4-[3-(2-fluorophenyl)propoxy]-3-trifluoromethylphenyl}-2-(phosphoryloxymethyl)-3-butenol] | – | – | did not reduce the heart rate of the rat by 20% or more | –
18 | Cl.NC(CO)(CO)CCc1ccc(OCCCc2cccc(OC(F)(F)F)c2)c(C(F)(F)F)c1 [Compound 58-5, 2-amino-2-(2-{4-[3-(3-trifluoromethoxyphenyl)propoxy]-3-trifluoromethylphenyl}ethyl)propane-1,3-diol hydrochloride] | 0.07 | 0.06 | – | –
19 | Cc1cccc(CCCOc2ccc(CCC(N)(CO)CO)cc2C(F)(F)F)c1.Cl [Compound 15-4, 2-amino-2-(2-{4-[3-(3-methylphenyl)propoxy]-3-trifluoromethylphenyl}ethyl)propane-1,3-diol hydrochloride] | 0.05 | 0.03 | – | Effect on heart rate (heart rate in rat; [4]): did not reduce the heart rate
20 | NC(CO)(CCc1ccc(OCCCc2cccc(OC(F)(F)F)c2)c(C(F)(F)F)c1)COP(=O)(O)O (stereo not drawn) [Compound 158-2, 2-amino-2-(phosphoryloxymethyl)-4-{4-[3-(3-trifluoromethoxyphenyl)propoxy]-3-trifluoromethylphenyl}butanol] | – | – | did not reduce the heart rate of the rat by 20% or more | –
21 | CCC(N)(CCc1ccc(OCCCc2cccc(OC(F)(F)F)c2)c(C(F)(F)F)c1)COP(=O)(O)O (stereo not drawn) [Compound 223-2, phosphoric acid mono(2-amino-2-ethyl-4-{4-[3-(3-trifluoromethoxyphenyl)propoxy]-3-trifluoromethylphenyl}butyl)ester] | – | – | did not reduce the heart rate of the rat by 20% or more | –
22 | NC(CO)(CCc1ccc(OCCCc2ccc(OC(F)(F)F)cc2)c(C(F)(F)F)c1)COP(=O)(O)O (stereo not drawn) [Compound 153-2, 2-amino-2-(phosphoryloxymethyl)-4-{4-[3-(4-trifluoromethoxyphenyl)propoxy]-3-trifluoromethylphenyl}butanol] | – | – | did not reduce the heart rate of the rat by 20% or more | –
23 | CC[C@](N)(CO)CCc1ccc(OCCCc2ccc(Cl)c(Cl)c2)c(C(F)(F)F)c1.Cl [Compound 206-3, (R)-2-amino-4-{4-[3-(3,4-dichlorophenyl)propoxy]-3-trifluoromethylphenyl}-2-ethylbutanol hydrochloride] | 0.05 | 0.02 | – | –
